US8697441B2, “Method of inducing high activity of human adipose stem cell and medium therefor” (Seoul National University Hospital, priority 2009, dated 2014)

What was measured:
human adipose stem cells [1] = assay: Culturing of adipose stem cells in medium containing glycerol, cell counting; assay type: cell-based
Protocol: Through experiments to elucidate the mechanism of improved growth ability observed in coculturing with adipocytes, The present inventors have confirmed that the fat metabolite glycerol is one of the important factors and found out that the growth ability and differentiation efficiency can be enhanced only with glycerol, without adipocytes. […] […] […] In addition, the degree of DNA polymerization was evaluated by BrdU assay in order to further investigate the ability of cell growth and differentiation.

AKT = assay: Analysis of activation mechanism: degree of AKT activation (pAKT/tAKT); assay type: cell-based, human; settings: FIG. 7; decreased again by inhibition of aquaporins (AQ1 and AQ9)
Protocol: Then, protein was extracted from the cells of each group and the degree of AKT activation, which is a measure of cell activity, was measured. […] The degree of AKT activation is evaluated from the ratio of phosphorylated AKT (pAKT) to total AKT (tAKT). The total AKT was normalized with β-actin which is normally expressed in cells.

human adipose stem cells [2] = assay: Growth ability (BrdU assay); assay type: cell-based; settings: FIG. 6b
Protocol: 1. Growth Ability (BrdU Assay) DNA polymerization occurring during cell growth was quantitated using BrdU. The same number of isolated human adipose stem cells (2×10^4 cells each) were cultured in a culture dish in α-MEM containing 10-100 μM glycerol and 10% FBS. […] In addition, the degree of DNA polymerization was evaluated by BrdU assay in order to further investigate the ability of cell growth and differentiation.

[3] = test system: human adipose stem cells cocultured with HUVECs; assay: Matrigel tube formation assay after coculturing with HUVECs; assay type: cell-based; settings: FIG. 8; adipose stem cells exposed to glycerol vs not exposed
Protocol: 3. Tube Formation Assay Vascular tube formation ability was observed after coculturing the cells with human umbilical vein endothelial cells (HUVECs). Differentiation potency was evaluated by Matrigel tube formation assay, which is widely used to compare formation of capillary-like structures in vitro, after coculturing human adipose stem cells with HUVECs.

SMILES: OCC(O)CO [glycerol]
- most effective glycerol concentration (human adipose stem cells [1]; FIG. 6, cell number, BrdU, morphology): 10 µM
- cell number (human adipose stem cells [1]; FIG. 6a, adipose stem cells cultured in medium containing glycerol, by glycerol concentration): increased in a glycerol concentration-dependent manner
- cell number versus control groups (human adipose stem cells [1]; G10 (10 μM glycerol), α-MEM with 10% FBS, 2×10^4 cells seeded, FIG. 6a): showed a cell number larger than those of the negative control group “control” and the positive control group “bFGF (4 ng/mL)”
- cytotoxicity (human adipose stem cells [1]; glycerol concentration 500 μM): cytotoxicity was observed
- AKT activity (AKT): increased AKT activity
- BrdU incorporation owing to cell division (human adipose stem cells [2]; with glycerol concentration): increased BrdU incorporation
- DNA synthesis (BrdU assay) (human adipose stem cells [2]; group G1): showed active DNA synthesis
- DNA synthesis (BrdU assay) (human adipose stem cells [2]; group G10 (10 μM glycerol)): showed active DNA synthesis
- vascular tube formation ability [3]: increased vascular structures and densities
